These results are taken from PubChem BioAssay AID326 (DTP/NCI, 2004).

Values joined by “and” are separate entries in the source; they are usually repeats but may differ in a detail not shown here. Identical values can stand only once. Inconclusive results and toxic doses are left out.

The test system of the test is CD2F1 mice, P388/DHAQ leukemia ip, median survival T/C. Kind of test: NCI In Vivo Anticancer Drug Screen. Data for tumor model P388 Leukemia resistant to Dihydroxy Anthracenedione; NSC 299195 (intraperitoneal) in CD2F1 (CDF1) mice. Particulars: endpoint: median survival time, higher = longer survival. How it is done:
The antitumor activity of compounds was measured in mice bearing transplantable tumors. Survival or tumor size were measured and the results are expressed as the measurement made in the treated group (T) divided by the measurement made in the vehicle treated control group (C). The tumor model used in this assay is P388 Leukemia resistant to Dihydroxy Anthracenedione; NSC 299195 (intraperitoneal) in CD2F1 (CDF1) mice

Setting [1] is: dose: 2.0 mg/kg/injection, schedule: Q04DX003 (ip), vehicle: saline.

`O=CC(NC(=O)N(CCCl)N=O)C(O)C(O)C(O)CO` (stereo unspecified): the T/C (dose: 7.2 mg/kg/injection, schedule: Q04DX002 (ip), vehicle: saline) was 201 % of control; the T/C (dose: 12.0 mg/kg/injection, schedule: Q04DX002 (ip), vehicle: saline) is 181 % of control; the T/C (dose: 20.0 mg/kg/injection, schedule: Q04DX002 (ip), vehicle: saline) is 412 % of control.

On to `COc1ccc(CCN(C)CCCC(C#N)(c2ccc(OC)c(OC)c2)C(C)C)cc1OC` (stereo unspecified), for which the T/C (dose: 16.0 mg/kg/injection, schedule: Q03HX004 (ip), vehicle: saline) is 100 % of control and the T/C (dose: 32.0 mg/kg/injection, schedule: Q03HX004 (ip), vehicle: saline) was 103 % of control.

As to `CC(=O)[C@]1(O)Cc2c(O)c3c(c(O)c2[C@@H](OC2CC(N)C(O)C(C)O2)C1)C(=O)c1c(O)cccc1C3=O` (stereo partly specified), the T/C by setting is: (dose: 0.32 mg/kg/injection, schedule: Q04DX003 (ip), vehicle: saline) 113 % of control; (dose: 0.54 mg/kg/injection, schedule: Q04DX003 (ip), vehicle: saline) 111 % of control; (dose: 1.5 mg/kg/injection, schedule: Q04DX003 (ip), vehicle: saline) 110 % of control; under setting [1], 96 % of control; (dose: 2.5 mg/kg/injection, schedule: Q04DX003 (ip), vehicle: saline) 95 % of control.

With `O=C(Nc1ccc(C2=NCCCN2)cc1)c1ccc(C(=O)Nc2ccc(C3=NCCCN3)cc2)cc1`, the T/C (dose: 4.32 mg/kg/injection, schedule: Q04DX003 (ip), vehicle: Klucel (hydroxypropylcellulose) (HPC)) was 110 % of control; the T/C (dose: 6.48 mg/kg/injection, schedule: Q04DX003 (ip), vehicle: Klucel (hydroxypropylcellulose) (HPC)) is 106 % of control; the T/C (dose: 7.2 mg/kg/injection, schedule: Q04DX003 (ip), vehicle: Klucel (hydroxypropylcellulose) (HPC)) was 110 % of control; the T/C (dose: 10.8 mg/kg/injection, schedule: Q04DX003 (ip), vehicle: Klucel (hydroxypropylcellulose) (HPC)) is 110 % of control and 119 % of control; the T/C (dose: 12.0 mg/kg/injection, schedule: Q04DX003 (ip), vehicle: Klucel (hydroxypropylcellulose) (HPC)) is 112 % of control; the T/C (dose: 18.0 mg/kg/injection, schedule: Q04DX003 (ip), vehicle: Klucel (hydroxypropylcellulose) (HPC)) is 107 % of control and 121 % of control. Also, the T/C is 111 % of control (dose: 20.0 mg/kg/injection, schedule: Q04DX003 (ip), vehicle: Klucel (hydroxypropylcellulose) (HPC)); 100 % of control (dose: 30.0 mg/kg/injection, schedule: Q04DX003 (ip), vehicle: Klucel (hydroxypropylcellulose) (HPC)); 107 % of control (dose: 50.0 mg/kg/injection, schedule: Q04DX003 (ip), vehicle: Klucel (hydroxypropylcellulose) (HPC)).

On to `C(=N/NC1=NCCN1)/c1c2ccccc2c(/C=N\NC2=NCCN2)c2ccccc12`, for which the T/C reads like this: (dose: 5.18 mg/kg/injection, schedule: Q04DX002 (ip), vehicle: saline) 103 % of control; (dose: 8.64 mg/kg/injection, schedule: Q04DX002 (ip), vehicle: saline) 108 % of control; (dose: 13.0 mg/kg/injection, schedule: Q04DX002 (ip), vehicle: water) 111 % of control; (dose: 14.4 mg/kg/injection, schedule: Q04DX002 (ip), vehicle: saline) 105 % of control; (dose: 21.6 mg/kg/injection, schedule: Q04DX002 (ip), vehicle: water) 118 % of control; (dose: 36.0 mg/kg/injection, schedule: Q04DX002 (ip), vehicle: water) 111 % of control. Further, the T/C runs as follows: (dose: 40.0 mg/kg/injection, schedule: Q04DX002 (ip), vehicle: saline) 98 % of control; (dose: 60.0 mg/kg/injection, schedule: Q04DX002 (ip), vehicle: water) 109 % of control.

As to `O=P1(N(CCCl)CCCl)NCCCO1` (stereo unspecified), the T/C by setting is: (dose: 32.4 mg/kg/injection, schedule: Q04DX002 (ip), vehicle: saline) 189 % of control; (dose: 38.9 mg/kg/injection, schedule: Q04DX003 (ip), vehicle: saline) 224 % of control; (dose: 43.2 mg/kg/injection, schedule: Q04DX002 (ip), vehicle: saline) 203 % of control; (dose: 54.0 mg/kg/injection, schedule: Q04DX002 (ip), vehicle: saline) 255 % of control; (dose: 64.8 mg/kg/injection, schedule: Q04DX003 (ip), vehicle: saline) 353 % of control; (dose: 72.0 mg/kg/injection, schedule: Q04DX002 (ip), vehicle: saline) 201 % of control. Also, the T/C is 336 % of control (dose: 90.0 mg/kg/injection, schedule: Q04DX002 (ip), vehicle: saline); 463 % of control (dose: 108.0 mg/kg/injection, schedule: Q04DX003 (ip), vehicle: saline); 223 % of control (dose: 120.0 mg/kg/injection, schedule: Q04DX002 (ip), vehicle: saline); 200 % of control (dose: 150.0 mg/kg/injection, schedule: Q04DX002 (ip), vehicle: saline); 380 % of control (dose: 200.0 mg/kg/injection, schedule: Q04DX002 (ip), vehicle: saline).

Consider `Cc1c2ccncc2c(C)c2c1[nH]c1ccccc12`, for which the T/C is, setting by setting: (dose: 13.0 mg/kg/injection, schedule: Q04DX003 (ip), vehicle: saline with Tween-80) 101 % of control and 107 % of control; (dose: 25.9 mg/kg/injection, schedule: Q04DX002 (ip), vehicle: saline with Tween-80) 97 % of control; (dose: 32.4 mg/kg/injection, schedule: Q04DX002 (ip), vehicle: Klucel (hydroxypropylcellulose) (HPC)) 111 % of control; (dose: 43.2 mg/kg/injection, schedule: Q04DX002 (ip), vehicle: saline with Tween-80) 105 % of control; (dose: 54.0 mg/kg/injection, schedule: Q04DX002 (ip), vehicle: Klucel (hydroxypropylcellulose) (HPC)) 100 % of control; (dose: 60.0 mg/kg/injection, schedule: Q04DX003 (ip), vehicle: saline with Tween-80) 116 % of control and 223 % of control and 98 % of control. Also, the T/C is, setting by setting: (dose: 72.0 mg/kg/injection, schedule: Q04DX002 (ip), vehicle: saline with Tween-80) 112 % of control; (dose: 90.0 mg/kg/injection, schedule: Q04DX002 (ip), vehicle: Klucel (hydroxypropylcellulose) (HPC)) 88 % of control; (dose: 120.0 mg/kg/injection, schedule: Q04DX002 (ip), vehicle: saline with Tween-80) 114 % of control; (dose: 150.0 mg/kg/injection, schedule: Q04DX002 (ip), vehicle: Klucel (hydroxypropylcellulose) (HPC)) 83 % of control.

As for `CCC1(O)CC2CN(CCc3c([nH]c4ccccc34)C(C(=O)OC)(c3cc4c(cc3OC)N(C)C3C(O)(C(N)=O)C(O)C5(CC)C=CCN6CCC43C65)C2)C1` (stereo unspecified) (tested in a mixture with another compound), the T/C was 173 % of control (dose: 0.65 mg/kg/injection, schedule: Q04DX003 (ip), vehicle: clinical formulation); 182 % of control (dose: 1.08 mg/kg/injection, schedule: Q04DX003 (ip), vehicle: clinical formulation); 208 % of control (dose: 1.8 mg/kg/injection, schedule: Q04DX003 (ip), vehicle: clinical formulation); 87 % of control (dose: 3.0 mg/kg/injection, schedule: Q04DX003 (ip), vehicle: clinical formulation).

As for `O=C1c2ccccc2C(=O)c2c(NCCNCCO)ccc(O)c21`, the T/C (dose: 19.4 mg/kg/injection, schedule: Q04DX003 (ip), vehicle: saline) was 121 % of control; the T/C (dose: 32.4 mg/kg/injection, schedule: Q04DX003 (ip), vehicle: saline) is 107 % of control; the T/C (dose: 54.0 mg/kg/injection, schedule: Q04DX003 (ip), vehicle: saline) is 90 % of control.

For `COc1cc([C@@H]2c3cc4c(cc3[C@@H](OC3OC5COC(C)OC5C(O)C3O)[C@H]3COC(=O)[C@H]23)OCO4)cc(OC)c1O` (stereo partly specified), the T/C by setting is: (dose: 7.78 mg/kg/injection, schedule: Q04DX003 (ip), vehicle: water) 123 % of control; (dose: 13.0 mg/kg/injection, schedule: Q04DX003 (ip), vehicle: water) 124 % of control; (dose: 18.0 mg/kg/injection, schedule: Q04DX003 (ip), vehicle: clinical formulation) 155 % of control; (dose: 18.0 mg/kg/injection, schedule: Q04DX003 (ip), vehicle: water) 153 % of control; (dose: 30.0 mg/kg/injection, schedule: Q04DX003 (ip), vehicle: clinical formulation) 162 % of control; (dose: 30.0 mg/kg/injection, schedule: Q04DX003 (ip), vehicle: water) 105 % of control. Also, the T/C (dose: 50.0 mg/kg/injection, schedule: Q04DX003 (ip), vehicle: clinical formulation) was 166 % of control.

For the compound `CC[C@]1(O)C[C@H]2CN(CCc3c([nH]c4ccccc34)[C@@](C(=O)OC)(c3cc4c(cc3OC)N(C=O)[C@H]3[C@@](O)(C(=O)OC)[C@H](OC(C)=O)[C@]5(CC)C=CCN6CC[C@]43[C@@H]65)C2)C1`, the T/C is, setting by setting: (dose: 0.43 mg/kg/injection, schedule: Q04DX003 (ip), vehicle: saline) 160 % of control; (dose: 0.72 mg/kg/injection, schedule: Q04DX003 (ip), vehicle: saline) 150 % of control and 158 % of control and 169 % of control; (dose: 1.2 mg/kg/injection, schedule: Q04DX003 (ip), vehicle: saline) 161 % of control and 168 % of control and 172 % of control; under setting [1], 168 % of control and 169 % of control and 195 % of control.
